{
  "source": "patent US20200347362A1",
  "about": "“COMPOSITION AND METHOD FOR INCREASING PRODUCTION OF BACTERIOPHAGE USING REACTIVE OXYGEN SPECIES” (Hankuk University of Foreign Studies Research & Business …, priority 2017, published 2020)",
  "key": {"[1]": {"system": "bacteriophage T4 in E. coli K12 (MG1655)", "experimental": "E. coli K12 (MG1655) was cultured overnight. The overnight culture was inoculated at 1:100 (vol:vol) ratio to a 10 ml LB broth in a 50 ml tube and incubated for 1 hr to prepare a fresh culture. When the E. coli K12 strain reached an OD600 of 0.3, H2O2 was added at a final concentration of 4.5 mM and incubated further for 1 hr until OD600 of 0.5˜0.7.\nThen T4 was added at a multiplicity of infection (MOI) of 0.001 and incubated further for 5 min at 37° C. in a shaking incubator to allow for phage adsorption. Then the culture was centrifuged at 12,000 rmp for 5 min and the supernatant was removed. Ten ml of fresh LB broth was added to the pellet and resuspended. When the resuspension was completed, which was set to 0 min, the resuspend culture was incubated at a 37° Crotary incubator at 0 min, and 500 μl of the culture was taken at 5 minute intervals. Each of the culture was then plated by a double agar overlay and the number of phages were counted."}, "[2]": {"system": "bacteriophage T4 on E. coli", "conditions": "solid medium, sub-lethal dose of hydrogen peroxide", "experimental": "Phage plaque size measurement. Phage plaques were allowed to form on a bacterial lawn and the size measured using a digital caliper.\n(§1) The serially diluted phage solution was plated to a solid medium containing sublethal dose of H2O2 by using a double agar overlay and the number of phages was counted."}, "E. coli [3]": {"system": "E. coli", "conditions": "E. coli cultured in liquid medium with sub-lethal dose of hydrogen peroxide (FIG. 2)", "experimental": "Bacteria Imaging. The bacterial morphologies were observed under a laser scanning microscope using ZEN software. (Zeiss LSM 700). For sampling, 5˜10 ul of the bacteria was dropped on a glass slide and covered with a coverslip. After 20 min of drying in a fume hood, the bacteria were observed using a 100× objective lens. When the bacteria were cultured using a glass-bottom 96-well black plate (Ibidi #89626), the bacteria were fixed with cold acetone and blocked with 1% BSA in PBST for 30 min.\nas §1"}, "E. coli [4]": {"system": "E. coli", "description": "In the present disclosure, the term “sublethal concentration” refers to a concentration that affects the growth of the bacteria but is not enough to cause bacterial death. The concentration may vary and be determined depending on the particular ROS, bacteria, and/or culture medium employed. In one embodiment of the present disclosure, the sublethal concentration is defined as a minimum concentration at which the growth rate of bacteria remains constant until 1 hr after the treatment with ROS, which begin to decrease 2 hrs after the treatment with ROS.\nH2O2 was used as ROS, which was prepared by 1:2 serial dilution."}, "[5]": {"conditions": "4.5 mM H2O2, liquid medium, T4 at MOI 0.001 (FIG. 3)"}},
  "note": "Read-outs that look alike come from different tables or passages of the source.",
  "data": [
    {"smiles": "OO", "note": "[H2O2, hydrogen peroxide]", "values": [
      {"measurement": "delay of the start of the burst compared to the control", "setting": "[1]; [5]", "result": 5, "unit": "min"},
      {"measurement": "increase of the size of the burst compared to the control", "setting": "[1]; [5]", "result": 6, "unit": "times"},
      {"measurement": "phage production", "setting": "[1]; sublethal dose of H2O2", "result": "increase in the phage production was clearly observed"},
      {"measurement": "increase of plaque size (diameter) compared to the control", "setting": "[2]", "result": "at least 5 times"},
      {"measurement": "bacterial morphology (filamentation, bacterial length)", "setting": "E. coli [3]", "result": "bacterial filamentation was clearly observed"},
      {"measurement": "bacterial morphology (filamentation, bacterial length)", "setting": "E. coli [3]; listed as hydrogen peroxide", "result": "Increase in bacterial length due to bacterial filamentation"},
      {"measurement": "sublethal concentration", "setting": "E. coli [4]; liquid medium (FIG. 1)", "result": 4.5, "unit": "mM"},
      {"measurement": "sublethal concentration", "setting": "E. coli [4]; solid medium", "result": 0.2, "unit": "mM"}
    ]}
  ]
}
